Laboratory results published in patent publication US20230027066A1 (Urovant Sciences GmbH, priority 2019, published 2023).

Assays:
Assay type in all cases: in vivo, human
[1] = Phase 3 study (75 mg), heart rate and blood pressure changes; conditions: Week 12, all patients
Source text: Study assessments of safety included adverse events, physical examinations, vital signs (and weight), and clinical laboratory tests
Categorical changes are based on 3 consecutive post-baseline visits and patients are counted in all applicable categories (e.g., if a patient has a 12 unit increase then that patient is counted in both ≥5 and ≥10 unit columns).
Blood Pressure assessments are taken in triplicate and averaged at each visit.

[2] = test system: men and women with OAB; assay: Phase 2b study of vibegron in OAB, Part 1, efficacy at Week 8 (voiding diary)
Source text: Part 2 was designed to continue to assess the safety and efficacy of concomitant dosing. […] Subjects in both Part 1 and Part 2 had the option of enrolling in a 1-year extension. Participants were required to keep a voiding diary, recording the occurrence of each strong urge, total incontinence, and urge incontinence episode. Efficacy data for Part 1 and Part 2 are summarized herein.
The total number of urgency incontinence episodes must have exceeded the total number of stress incontinence episodes for all subjects.

[3] = Phase 2b study, vital sign (HR, SBP, DBP) changes and orthostatic AEs
Source text: None led to discontinuation. The overall incidence of orthostatic symptoms was low.
Small differences in the percent of subjects exceeding categorical heart rate and blood pressure thresholds for vibegron were similar to those in the tolterodine arm.

[4] = test system: men and women with overactive bladder; assay: extension study, OAB-q LF coping subscore at Week 52; conditions: for OAB-q LF Coping Subscore, Week 52 Mean: Full Analysis Set Extension; for OAB-q LF Coping Subscore, Change from Baseline Mean at Week 52: baseline from parent study
[5] = vibegron 3 mg, OAB Wet subjects
[6] = vibegron 15 mg, OAB Wet subjects
[7] = vibegron 50 mg, OAB Wet subjects
[8] = vibegron 100 mg, OAB Wet subjects

O=C(Nc1ccc(C[C@@H]2CC[C@H]([C@H](O)c3ccccc3)N2)cc1)[C@@H]1CCc2nccc(=O)n21 [Vibegron, (6S)-N-[4-[[(2S,5R)−5-[(R)-hydroxy(phenyl)methyl]pyrrolidin−2-yl]methyl]phenyl]−4-oxo−7,8-dihydro−6H-pyrrolo[1,2-a]pyrimidine−6-carboxamide]
Diastolic BP, Mean Change from Baseline at Week 12 (SD) [1]: 0.2 (7.43) mm Hg | Heart Rate, Mean Change from Baseline at Week 12 [1]: 0.5 beats/minute | Systolic BP, Mean Change from Baseline at Week 12 [1]: 0.2 mm Hg | Micturitions: adjusted difference from placebo at Week 8, difference in LS means (MMRM) ([2]; vibegron 3 mg): −0.5 | Micturitions: difference from placebo at Week 8, difference in LS means (cLDA) ([2]; vibegron 3 mg): −0.46 | Urgency episodes: adjusted difference from placebo at Week 8, difference in LS means (MMRM) ([2]; vibegron 3 mg): −0.2 | Urgency episodes: difference from placebo at Week 8, difference in LS means (cLDA) ([2]; vibegron 3 mg): −0.18 | Total incontinence episodes: adjusted difference from placebo at Week 8, difference in LS means (MMRM) [2, 5]: −0.1 | Total incontinence episodes: difference from placebo at Week 8, difference in LS means (cLDA) [2, 5]: −0.18 | Urgency incontinence episodes: adjusted difference from placebo at Week 8, difference in LS means (MMRM) [2, 5]: −0.2 | Urgency incontinence episodes: difference from placebo at Week 8, difference in LS means (cLDA) [2, 5]: −0.28 | Micturitions: adjusted difference from placebo at Week 8, difference in LS means (MMRM) ([2]; vibegron 15 mg): −0.5 | Micturitions: difference from placebo at Week 8, difference in LS means (cLDA) ([2]; vibegron 15 mg): −0.45 | Urgency episodes: adjusted difference from placebo at Week 8, difference in LS means (MMRM) ([2]; vibegron 15 mg): −0.7 | Urgency episodes: difference from placebo at Week 8, difference in LS means (cLDA) ([2]; vibegron 15 mg): −0.67 | Total incontinence episodes: adjusted difference from placebo at Week 8, difference in LS means (MMRM) [2, 6]: −0.4 | Total incontinence episodes: difference from placebo at Week 8, difference in LS means (cLDA) [2, 6]: −0.48 | Urgency incontinence episodes: adjusted difference from placebo at Week 8, difference in LS means (MMRM) [2, 6]: −0.6 | Urgency incontinence episodes: difference from placebo at Week 8, difference in LS means (cLDA) [2, 6]: −0.57 | Micturitions: adjusted difference from placebo at Week 8, difference in LS means (MMRM) ([2]; vibegron 50 mg): −0.7 | Micturitions: difference from placebo at Week 8, difference in LS means (cLDA) ([2]; vibegron 50 mg): −0.64 | Urgency episodes: adjusted difference from placebo at Week 8, difference in LS means (MMRM) ([2]; vibegron 50 mg): −0.8 | Urgency episodes: difference from placebo at Week 8, difference in LS means (cLDA) ([2]; vibegron 50 mg): −0.76 | Total incontinence episodes: adjusted difference from placebo at Week 8, difference in LS means (MMRM) [2, 7]: −0.5 | Total incontinence episodes: difference from placebo at Week 8, difference in LS means (cLDA) [2, 7]: −0.60 | Urgency incontinence episodes: adjusted difference from placebo at Week 8, difference in LS means (MMRM) [2, 7]: −0.7 | Urgency incontinence episodes: change from baseline at Week 8, mean [2, 7]: −1.90 | Urgency incontinence episodes: daily number of events, Week 8 mean [2, 7]: 0.86 | Urgency incontinence episodes: difference from placebo at Week 8, difference in LS means (cLDA) [2, 7]: −0.72 | Micturitions: adjusted difference from placebo at Week 8, difference in LS means (MMRM) ([2]; vibegron 100 mg): −0.9 | Micturitions: difference from placebo at Week 8, difference in LS means (cLDA) ([2]; vibegron 100 mg): −0.91 | Urgency episodes: adjusted difference from placebo at Week 8, difference in LS means (MMRM) ([2]; vibegron 100 mg): −1.3 | Micturitions, change from baseline at week 8, difference in LS means 100 mg − 50 mg ([2]; vibegron 100 mg vs 50 mg): −0.27 | Total incontinence episodes, change from baseline at week 8, difference in LS means 100 mg − 50 mg ([2]; vibegron 100 mg vs 50 mg): 0.02 | Urgency episodes, change from baseline at week 8, difference in LS means 100 mg − 50 mg ([2]; vibegron 100 mg vs 50 mg): −0.48 | Urgency incontinence episodes, change from baseline at week 8, difference in LS means 100 mg − 50 mg ([2]; vibegron 100 mg vs 50 mg): 0.01 | Total incontinence episodes: adjusted difference from placebo at Week 8, difference in LS means (MMRM) [2, 8]: −0.6 | Total incontinence episodes: difference from placebo at Week 8, difference in LS means (cLDA) [2, 8]: −0.58 | Urgency incontinence episodes: adjusted difference from placebo at Week 8, difference in LS means (MMRM) [2, 8]: −0.7 | Urgency incontinence episodes: daily number of events, Week 8 mean [2, 8]: 0.84 | Urgency incontinence episodes: difference from placebo at Week 8, difference in LS means (cLDA) [2, 8]: −0.71 | DBP change from baseline, mean (95% CI) maximum, week 1 to 8 ([3]; vibegron 3 mg): 5.03 (3.92, 6.15) mm Hg | DBP change from baseline, mean (95% CI), week 1 ([3]; vibegron 3 mg): −0.37 (−1.69, 0.95) mm Hg | HR change from baseline, mean (95% CI) maximum, week 1 to 8 ([3]; vibegron 3 mg): 5.57 (4.25, 6.90) bpm | HR change from baseline, mean (95% CI), week 1 ([3]; vibegron 3 mg): 0.36 (−0.90, 1.62) bpm | SBP change from baseline, mean (95% CI) maximum, week 1 to 8 ([3]; vibegron 3 mg): 7.14 (5.18, 9.10) mm Hg | SBP change from baseline, mean (95% CI), week 1 ([3]; vibegron 3 mg): −0.35 (−2.34, 1.65) mm Hg | DBP change from baseline, mean (95% CI) maximum, week 1 to 8 ([3]; vibegron 15 mg): 6.37 (5.20, 7.53) mm Hg | DBP change from baseline, mean (95% CI), week 1 ([3]; vibegron 15 mg): 0.03 (−1.52, 1.59) mm Hg | HR change from baseline, mean (95% CI) maximum, week 1 to 8 ([3]; vibegron 15 mg): 6.56 (5.20, 7.92) bpm | HR change from baseline, mean (95% CI), week 1 ([3]; vibegron 15 mg): 0.35 (−1.15, 1.85) bpm | SBP change from baseline, mean (95% CI) maximum, week 1 to 8 ([3]; vibegron 15 mg): 8.93 (7.18, 10.67) mm Hg | SBP change from baseline, mean (95% CI), week 1 ([3]; vibegron 15 mg): −0.34 (−2.46, 1.78) mm Hg | subjects with orthostatic related AEs ([3]; vibegron 15 mg): 0.3% | DBP change from baseline, mean (95% CI) maximum, week 1 to 8 ([3]; vibegron 50 mg): 4.19 (3.10, 5.29) mm Hg | DBP change from baseline, mean (95% CI), week 1 ([3]; vibegron 50 mg): −0.70 (−2.07, 0.67) mm Hg | HR change from baseline, mean (95% CI) maximum, week 1 to 8 ([3]; vibegron 50 mg): 5.49 (4.28, 6.69) bpm | HR change from baseline, mean (95% CI), week 1 ([3]; vibegron 50 mg): 0.29 (−0.88, 1.46) bpm | SBP change from baseline, mean (95% CI) maximum, week 1 to 8 ([3]; vibegron 50 mg): 7.01 (5.31, 8.70) mm Hg | SBP change from baseline, mean (95% CI), week 1 ([3]; vibegron 50 mg): −0.79 (−2.65, 1.08) mm Hg | SBP and DBP, difference between placebo and vibegron in mean changes at Week 1 and mean maximum changes over 8 weeks ([3]; vibegron 50 mg and 100 mg): < 1 mm Hg | DBP change from baseline, mean (95% CI) maximum, week 1 to 8 ([3]; vibegron 100 mg): 4.80 (3.88, 5.72) mm Hg | DBP change from baseline, mean (95% CI), week 1 ([3]; vibegron 100 mg): −0.69 (−1.72, 0.34) mm Hg | HR change from baseline, mean (95% CI) maximum, week 1 to 8 ([3]; vibegron 100 mg): 6.12 (5.10, 7.15) bpm | HR change from baseline, mean (95% CI), week 1 ([3]; vibegron 100 mg): 0.35 (−0.69, 1.38) bpm | SBP change from baseline, mean (95% CI) maximum, week 1 to 8 ([3]; vibegron 100 mg): 6.51 (5.09, 7.93) mm Hg | SBP change from baseline, mean (95% CI), week 1 ([3]; vibegron 100 mg): −0.77 (−2.22, 0.68) mm Hg | percent of subjects with a change from baseline in DBP >15 mmHg ([3]; vibegron 100 mg): 1.3% | subjects with orthostatic related AEs ([3]; vibegron 100 mg): 1.1% | HR, mean maximum changes over 8 weeks, difference to placebo ([3]; vibegron, all doses): < 2 bpm | OAB-q LF Coping Subscore, Week 52 Mean ([4]; 40-Week treatment group): 86.3 | OAB-q LF Coping Subscore, Change from Baseline Mean at Week 52 ([4]; 40-Week treatment group): 28.3 | OAB-q LF Coping Subscore, Week 52 Mean ([4]; 52-Week treatment group): 83.6 | OAB-q LF Coping Subscore, Change from Baseline Mean at Week 52 ([4]; 52-Week treatment group): 27.1
